Measured values from PubChem BioAssay AID2060909 (Molecular Pharmacology Branch, DTP, NCI, 2025).

Tested on: 362531-283-R-J2-PDC complex spheroid viability
Test: Anticancer human tumor 362531-283-R-J2-PDC patient-derived colon adenocarcinoma cell line growth inhibition [RAS]
Details: for IC50: curve of first compound; for viability, T/C: stronger effect = lower value
Method in brief: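 Tumour cells grown as complex spheroids with HUVEC endothelial cells and mesenchymal stem cells, treated with RAS pathway inhibitor combinations. Each agent spans half-log steps from near clinical Cmax, or 10 microM where Cmax is unknown.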
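Further: spheroids exposed to the agents for 7 days before readout.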
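Wherever viability, T/C is given: luminescence viability as percent of DMSO vehicle control wells.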

Molecule `CC1(O)CCCC1n1c(=O)c(C(F)F)cc2cnc(NC3CCN(S(C)(=O)=O)CC3)nc21` (stereo unspecified) + C#Cc1c(F)ccc2cc(O)cc(-c3ncc4c(N5CC6CCC(C5)N6)nc(OCC56CCCN5CC(F)C6)nc4c3F)c12 has an IC50 (second compound 0.0316 µM) greater than 10000 nM, an IC50 (second compound 0.1 µM) greater than 10000 nM and an IC50 (second compound 0.316 µM) of 3080 nM. It also gave an IC50 (second compound 1 µM) of 3430 nM, an IC50 (second compound 3.16 µM) of 1290 nM and an IC50 (second compound 10 µM) of less than 31.6 nM. It also gave a viability, T/C (second compound 0.0316 µM, first compound 0.0316 µM) of 92.6%, a viability, T/C (second compound 0.0316 µM, first compound 0.1 µM) of 91.8% and a viability, T/C (second compound 0.0316 µM, first compound 0.316 µM) of 71.8%. The viability, T/C (second compound 0.0316 µM, first compound 1 µM) was 71%, the viability, T/C (second compound 0.0316 µM, first compound 3.16 µM) was 62.3% and the viability, T/C (second compound 0.0316 µM, first compound 10 µM) was 81%. The viability, T/C (second compound 0.1 µM, first compound 0.0316 µM) was 95.4%, the viability, T/C (second compound 0.1 µM, first compound 0.1 µM) was 92.5% and the viability, T/C (second compound 0.1 µM, first compound 0.316 µM) was 80.9%. The viability, T/C (second compound 0.1 µM, first compound 1 µM) was 73.4%, the viability, T/C (second compound 0.1 µM, first compound 3.16 µM) was 68.7% and the viability, T/C (second compound 0.1 µM, first compound 10 µM) was 73.2%. For the same molecule, the viability, T/C (second compound 0.316 µM, first compound 0.0316 µM) was 82.7%, the viability, T/C (second compound 0.316 µM, first compound 0.1 µM) was 89.1% and the viability, T/C (second compound 0.316 µM, first compound 0.316 µM) was 74.6%. For the same molecule, the viability, T/C (second compound 0.316 µM, first compound 1 µM) was 66.4%, the viability, T/C (second compound 0.316 µM, first compound 3.16 µM) was 49.8% and the viability, T/C (second compound 0.316 µM, first compound 10 µM) was 37%. The viability, T/C (second compound 1 µM, first compound 0.0316 µM) was 82.8%, the viability, T/C (second compound 1 µM, first compound 0.1 µM) was 80.5% and the viability, T/C (second compound 1 µM, first compound 0.316 µM) was 67.7%. It also gave a viability, T/C (second compound 1 µM, first compound 1 µM) of 69.3%, a viability, T/C (second compound 1 µM, first compound 3.16 µM) of 53.9% and a viability, T/C (second compound 1 µM, first compound 10 µM) of 20.4%. The viability, T/C (second compound 3.16 µM, first compound 0.0316 µM) was 59.2%, the viability, T/C (second compound 3.16 µM, first compound 0.1 µM) was 59.8% and the viability, T/C (second compound 3.16 µM, first compound 0.316 µM) was 61.4%. The viability, T/C (second compound 3.16 µM, first compound 1 µM) was 54.7%, the viability, T/C (second compound 3.16 µM, first compound 3.16 µM) was 32% and the viability, T/C (second compound 3.16 µM, first compound 10 µM) was 7.49%. It also gave a viability, T/C (second compound 10 µM, first compound 0.0316 µM) of 45.1%, a viability, T/C (second compound 10 µM, first compound 0.1 µM) of 50.7% and a viability, T/C (second compound 10 µM, first compound 0.316 µM) of 29.9%. It also gave a viability, T/C (second compound 10 µM, first compound 1 µM) of 29.7%, a viability, T/C (second compound 10 µM, first compound 3.16 µM) of 24.7% and a viability, T/C (second compound 10 µM, first compound 10 µM) of 5.91%.

In the case of `CCc1c2c(nc3ccc(O)cc13)-c1cc3c(c(=O)n1C2)COC(=O)[C@]3(O)CC` + CCn1c(-c2cccnc2C(C)OC)c2c3cc(ccc31)N1CCOC(CC(NC(=O)C(C(C)C)N(C)C(=O)C3(F)CCN(C(=O)C#CC(C)(C)N(C)C)CC3)C(=O)N3CCCC(N3)C(=O)OCC(C)(C)C2)C1, the IC50 (second compound 0.000949 µM) is reported as 58.1 nM, the IC50 (second compound 0.003 µM) is reported as 32.9 nM and the IC50 (second compound 0.00949 µM) is reported as 51.3 nM. It also gave an IC50 (second compound 0.03 µM) of 60.5 nM, an IC50 (second compound 0.0949 µM) of 56.1 nM and an IC50 (second compound 0.3 µM) of 44.2 nM. The viability, T/C (second compound 0.000949 µM, first compound 0.000949 µM) was 96.5%, the viability, T/C (second compound 0.000949 µM, first compound 0.003 µM) was 91.6% and the viability, T/C (second compound 0.000949 µM, first compound 0.00949 µM) was 83%. The viability, T/C (second compound 0.000949 µM, first compound 0.03 µM) was 73.6%, the viability, T/C (second compound 0.000949 µM, first compound 0.0949 µM) was 32.9% and the viability, T/C (second compound 0.000949 µM, first compound 0.3 µM) was 18%. It also gave a viability, T/C (second compound 0.003 µM, first compound 0.000949 µM) of 112%, a viability, T/C (second compound 0.003 µM, first compound 0.003 µM) of 91.6% and a viability, T/C (second compound 0.003 µM, first compound 0.00949 µM) of 82.5%. The viability, T/C (second compound 0.003 µM, first compound 0.03 µM) was 45.9%, the viability, T/C (second compound 0.003 µM, first compound 0.0949 µM) was 34% and the viability, T/C (second compound 0.003 µM, first compound 0.3 µM) was 16.7%. For the same molecule, the viability, T/C (second compound 0.00949 µM, first compound 0.000949 µM) was 101%, the viability, T/C (second compound 0.00949 µM, first compound 0.003 µM) was 99.2% and the viability, T/C (second compound 0.00949 µM, first compound 0.00949 µM) was 76.1%. For the same molecule, the viability, T/C (second compound 0.00949 µM, first compound 0.03 µM) was 65%, the viability, T/C (second compound 0.00949 µM, first compound 0.0949 µM) was 35.5% and the viability, T/C (second compound 0.00949 µM, first compound 0.3 µM) was 17.8%. The viability, T/C (second compound 0.03 µM, first compound 0.000949 µM) was 103%, the viability, T/C (second compound 0.03 µM, first compound 0.003 µM) was 90.8% and the viability, T/C (second compound 0.03 µM, first compound 0.00949 µM) was 89%. For the same molecule, the viability, T/C (second compound 0.03 µM, first compound 0.03 µM) was 71.8%, the viability, T/C (second compound 0.03 µM, first compound 0.0949 µM) was 35.8% and the viability, T/C (second compound 0.03 µM, first compound 0.3 µM) was 15.7%. It also gave a viability, T/C (second compound 0.0949 µM, first compound 0.000949 µM) of 95.1%, a viability, T/C (second compound 0.0949 µM, first compound 0.003 µM) of 93.1% and a viability, T/C (second compound 0.0949 µM, first compound 0.00949 µM) of 84.8%. For the same molecule, the viability, T/C (second compound 0.0949 µM, first compound 0.03 µM) was 60.1%, the viability, T/C (second compound 0.0949 µM, first compound 0.0949 µM) was 40.9% and the viability, T/C (second compound 0.0949 µM, first compound 0.3 µM) was 16.4%. For the same molecule, the viability, T/C (second compound 0.3 µM, first compound 0.000949 µM) was 90.3%, the viability, T/C (second compound 0.3 µM, first compound 0.003 µM) was 108% and the viability, T/C (second compound 0.3 µM, first compound 0.00949 µM) was 90.3%. It also gave a viability, T/C (second compound 0.3 µM, first compound 0.03 µM) of 57.6%, a viability, T/C (second compound 0.3 µM, first compound 0.0949 µM) of 32.5% and a viability, T/C (second compound 0.3 µM, first compound 0.3 µM) of 13.3%.

For `CC1(O)CCCC1n1c(=O)c(C(F)F)cc2cnc(NC3CCN(S(C)(=O)=O)CC3)nc21` (stereo unspecified) + CCn1c(-c2cc(N3CCN(C)CC3)cnc2C(C)OC)c2c3cc(ccc31)-c1csc(n1)CC(NC(=O)C1CC1C)C(=O)N1CCCC(N1)C(=O)OCC(C)(C)C2, the IC50 (second compound 0.000949 µM) was 5440 nM, the IC50 (second compound 0.003 µM) was 6110 nM and the IC50 (second compound 0.00949 µM) was 8980 nM. It also gave an IC50 (second compound 0.03 µM) of 5900 nM, an IC50 (second compound 0.0949 µM) greater than 10000 nM and an IC50 (second compound 0.3 µM) of less than 31.6 nM. For the same molecule, the viability, T/C (second compound 0.000949 µM, first compound 0.0316 µM) was 97.7%, the viability, T/C (second compound 0.000949 µM, first compound 0.1 µM) was 97.5% and the viability, T/C (second compound 0.000949 µM, first compound 0.316 µM) was 98%. It also gave a viability, T/C (second compound 0.000949 µM, first compound 1 µM) of 79.5%, a viability, T/C (second compound 0.000949 µM, first compound 3.16 µM) of 57.6% and a viability, T/C (second compound 0.000949 µM, first compound 10 µM) of 42.2%. For the same molecule, the viability, T/C (second compound 0.003 µM, first compound 0.0316 µM) was 109%, the viability, T/C (second compound 0.003 µM, first compound 0.1 µM) was 112% and the viability, T/C (second compound 0.003 µM, first compound 0.316 µM) was 97.4%. For the same molecule, the viability, T/C (second compound 0.003 µM, first compound 1 µM) was 76.9%, the viability, T/C (second compound 0.003 µM, first compound 3.16 µM) was 61.5% and the viability, T/C (second compound 0.003 µM, first compound 10 µM) was 42.4%. For the same molecule, the viability, T/C (second compound 0.00949 µM, first compound 0.0316 µM) was 94.6%, the viability, T/C (second compound 0.00949 µM, first compound 0.1 µM) was 111% and the viability, T/C (second compound 0.00949 µM, first compound 0.316 µM) was 108%. The viability, T/C (second compound 0.00949 µM, first compound 1 µM) was 83.5%, the viability, T/C (second compound 0.00949 µM, first compound 3.16 µM) was 65.5% and the viability, T/C (second compound 0.00949 µM, first compound 10 µM) was 47.5%. The viability, T/C (second compound 0.03 µM, first compound 0.0316 µM) was 99.2%, the viability, T/C (second compound 0.03 µM, first compound 0.1 µM) was 99.1% and the viability, T/C (second compound 0.03 µM, first compound 0.316 µM) was 89.4%. It also gave a viability, T/C (second compound 0.03 µM, first compound 1 µM) of 87%, a viability, T/C (second compound 0.03 µM, first compound 3.16 µM) of 69.2% and a viability, T/C (second compound 0.03 µM, first compound 10 µM) of 33.9%. It also gave a viability, T/C (second compound 0.0949 µM, first compound 0.0316 µM) of 80.7%, a viability, T/C (second compound 0.0949 µM, first compound 0.1 µM) of 79.2% and a viability, T/C (second compound 0.0949 µM, first compound 0.316 µM) of 78.6%. It also gave a viability, T/C (second compound 0.0949 µM, first compound 1 µM) of 68.2%, a viability, T/C (second compound 0.0949 µM, first compound 3.16 µM) of 56.4% and a viability, T/C (second compound 0.0949 µM, first compound 10 µM) of 61%. For the same molecule, the viability, T/C (second compound 0.3 µM, first compound 0.0316 µM) was 37.4%, the viability, T/C (second compound 0.3 µM, first compound 0.1 µM) was 50.2% and the viability, T/C (second compound 0.3 µM, first compound 0.316 µM) was 37.7%. It also gave a viability, T/C (second compound 0.3 µM, first compound 1 µM) of 55.8%, a viability, T/C (second compound 0.3 µM, first compound 3.16 µM) of 45.9% and a viability, T/C (second compound 0.3 µM, first compound 10 µM) of 7.05%.
